Results: US20020035097A1, “Method of preventing and treating chemotherapy-induced alopecia” (priority 1991, published 2002)

What was measured:
Format in all cases: in vivo, rat
VP-16-induced alopecia = assay: VP-16 (Etoposide)-induced alopecia in young rats
Method: Twelve 7 day old rats were randomized in two groups. Group I was treated daily with buffer 0.1 ml s.c. for four days. The second Group was treated daily with Vitamin D3 50 μg s.c. over head for four days. After stopping the buffer or Vitamin D3 treatment, all rats received 1.5 mg/kg i.p. of VP-16 (Etoposide) daily for three days.
(§1) 1,25-Dihydroxyvitamin D3 was dissolved in absolute ethanol and applied topically with an applicator. Control animals were similarly treated with the same amount of ethanol. Animals were then kept individually separated for a period of three hours following which the treated area was carefully washed with soap and water and dried. Treatment was given daily beginning on day 5 after birth and ending on day 10.
(§2) All chemotherapies were given I.P. and started at 11 days of age. CTX, 35 mg/kg, was given for one day only. VP-16, 1.5 mg/kg, was given for three days. For CTX and ADM combination, CTX, 25 mg/kg was given for one day and ADM, 2.5 mg/kg, for three days. At these doses neither CTX nor ADM alone will produce alopecia. Alopecia was recorded on the tenth day from beginning chemotherapy.
(§3) A total of 4 experiments were carried out. In the first experiment, protection from Cytoxan-induced alopecia was examined. The experimental group was pretreated with 0.2 μg of 1,25-dihydroxyvitamin D3 in 0.15 ml of absolute ethanol applied topically over the head and neck and the control group received 0.15 ml of alcohol. All 10 rats in the control group became totally alopecic. […] The second experiment was carried out under similar conditions to examine protection from VP-16-induced alopecia. All 10 rats in the control group developed total body alopecia. […] The third experiment was designed to examine protection from alopecia induced by Cytoxan-Adriamycin combination. There were 11 rats in each group. Six rats in the control group developed alopecia over the head and neck and 5 rats developed total body alopecia. […] In the fourth experiment, protection from VP-16-induced alopecia was similarly examined except that the dose of 1,25-dihydroxyvitamin D3 was reduced to 0.1 μg in 0.1 ml absolute ethanol applied topically over the head area only. All 10 rats in the control group became completely alopecic.
as §1, with “RO 23-7553 (1,25 dihydroxy-16-ene-23-yne-cholecalciferol)” for “1,25-Dihydroxyvitamin D3”, “9” for “5”, “14.” for “10.”
On day 15 all animals received VP-16, 1.5 mg/kg i.p., for three days. Alopecia was recorded on day 25.
Thirteen rats were randomized in two groups. Experimental group, 7 rats; control group, 6 rats. The experimental group was pretreated with 1 μg of RO 23-7553 in 0.2 ml absolute ethanol applied topically over the neck and back and the control group received 0.2 ml of absolute ethanol. All six rats in the control group became totally alopecic over the neck and back.

ARA-C-induced alopecia = ARA-C-induced alopecia in young rats
Method: Sprague Dawley rats were purchased from Charles River Laboratories, Wilmington, Mass. Cytosar-U (ARA-C) was from the Upjohn Company, Kalamazoo, Mich. Receptor grade EGF from mouse submaxillary glands, human recombinant EGF, dimethyl sulfoxide (DMSO) and Vitamin D3 were purchased from Sigma Chemical Co., St. Louis, Mo. aFGF was purchased from AMGEN Corp., Thousand Oaks, Calif.
All rats from each experiment were treated with ARA-C 50 mg/kg intraperitoneally (i.p.) daily for 7 days. For subcutaneous (s.c.) injections, EGF and FGF were prepared in PBS 1% BSA. Alopecia was always recorded on day 12 of experiment, and scored as previously described (Hussein et al, Science, 249:1564-1566, 1990; Jimenez et al, FASEB J., 1991).
For topical treatment, murine EGF was prepared as follows: One vial of EGF (100 μg) was dissolved in 0.2 ml of PBS 1% BSA and 0.12 ml of this solution was added to 0.48 of DMSO. Three hours prior to ARA-C injection, 0.1 ml of the EGF-DMSO mixture was applied to each rat over a 1 cm^2 area between the shoulders using a rubber tip applicator. Rats were then kept individually separated for a period of three hours, following which the treated area was carefully washed with soap and water and dried. Treatment was continued for 7 days. Control animals were similarly treated using DMSO without EGF.
Two separate experiments were conducted to test the ability of murine EGF to protect from ARA-C-induced alopecia. In Experiment I, twenty-two 7-day old rats were randomized in two groups of eleven rats each. In addition to ARA-C, Group I received 2 μg of mouse EGF s.c. in the back between the two hind legs 3 hours prior to ARA-C injections daily for 7 days. Group II, received buffer solution similarly and served as control. Ten of eleven rats in Group II developed virtually total body alopecia and one rat developed more than 50% hair loss. In contrast, in Group I, 5 rats had no detectable hair loss and 6 rats had mild hair loss (Table I, Experiment I (FIG. 1)). In Experiment II, twelve 7-day old rats were randomized in two groups of 6 rats each. In addition to ARA-C, Group I received mouse EGF 1 μg s.c. daily for 7 days. Group II received buffer s.c. All 6 rats in Group II developed moderately severe to severe alopecia, whereas in Group I, one rat had no detectable hair loss and 5 rats developed only minimal hair loss (Table I, Experiment II).
For the next experiment, rHu-EGF was used. Twelve 7-day old rats were randomized in two groups of six rats each. In addition to ARA-C, Group I received rHu-EGF 2 μg s.c. in the flank area daily for 7 days. Group II received buffer s.c. All 6 rats in Group II developed total body alopecia, whereas in Group I none of the rats had total body alopecia, one rat had no detectable hair loss, four rats had mild alopecia and one rat had moderate alopecia (Table I, Experiment III, (FIG. 2)).
In the next experiment, twelve 7-day old rats were randomized in two groups of six rats each. Group I, in addition to ARA-C, received murine-EGF 10 μg in DMSO daily×7 days rubbed topically with a cotton tip applicator between the shoulder blades over an area of 1 cm^2. Group II received control solution topically. In Group II, all six rats developed complete body alopecia.
Fourteen 7-day old rats were randomized in two groups. All rats received ARA-C 50 mg/kg/day for seven days. In addition, Group I received aFGF 2 μg s.c. on back of head daily for seven days. Group II received buffer injections and served as controls. Alopecia was recorded on day 12 of experiment. All rats in Group II developed complete body alopecia.

[1] = tested on: Cytoxan/Adriamycin-induced alopecia; assay: Cytoxan/Adriamycin combination-induced alopecia in young rats
Method: Eight 4-day old Sprague Dawley rats were randomized in two groups of 4 rats each. Group I, received EGF […] s.c. on the head daily for 7 days. Group II received buffer injections and served as controls. One day after stopping EGF or buffer injections all rats received Cytoxan 25 mg/kg i.p.×1 day and Adriamycin 2.5 mg/kg i.p.×3 days. […] (FIG. 5).
as §1
as §2, with “At these doses neither CTX nor ADM alone will produce alopecia.” left out
as §3, with “alcohol.” for “alcohol. All 10 rats in the control group became totally alopecic.”, “VP-16-induced” for “VP-16-induced alopecia. All 10 rats in the control group developed total body”, “group.” for “group. Six rats in the control group developed alopecia over the head and neck and 5 rats developed total body alopecia.”, “only.” for “only. All 10 rats in the control group became completely alopecic.”

Cytoxan-induced alopecia = Cytoxan-induced alopecia in young rats; details: 50 μg daily i.p. or s.c. for 4 days prior to chemotherapy; Cytoxan 32.5 mg/kg single injection; 7 experiments, 89 animals
[2] = Experiment I, 2 μg s.c. daily × 7 days, 3 hours prior to ARA-C 50 mg/kg i.p. × 7 days, 11 rats, day 12
[3] = Experiment II, 1 μg s.c. daily × 7 days with ARA-C 50 mg/kg i.p. × 7 days, 6 rats, day 12
[4] = 2μ s.c. on the head daily for 7 days, then Cytoxan 25 mg/kg i.p. × 1 day and Adriamycin 2.5 mg/kg i.p. × 3 days, 4 rats
[5] = Experiment III, 2 μg s.c. in flank daily × 7 days with ARA-C 50 mg/kg i.p. × 7 days, 6 rats, day 12
[6] = Experiment III, 2 μg s.c. in flank daily × 7 days with ARA-C 50 mg/kg i.p. × 7 days, 6 rats, day 12, listed as rHu-ECF

Compound: C=C1/C(=C\C=C2/CCC[C@]3(C)C([C@H](C)CC#CC(C)(C)O)=CC[C@@H]23)C[C@@H](O)C[C@@H]1O [RO 23-7553, 1,25 dihydroxy-16-ene-23-yne-cholecalciferol]
- Protection from VP-16-induced alopecia (VP-16-induced alopecia; 1 μg in 0.2 ml absolute ethanol topically over neck and back, day 9 to 14 after birth, VP-16 1.5 mg/kg i.p. for three days from day 15, recorded day 25, 7 rats): all animals in the experimental group were protected

Compound: C=C1CC[C@H](O)C/C1=C/C=C1\CCC[C@]2(C)[C@@H]([C@H](C)CCCC(C)C)CC[C@@H]12 [Vitamin D3]
- Protection from alopecia (ARA-C-induced alopecia; 50 μg daily i.p. or s.c. for 4 days prior to chemotherapy, ARA-C 50 mg/kg i.p. daily for 7 days, 1 experiment, 8 animals): excellent protection and Yes*
- Protection from alopecia ([1]; 50 μg daily i.p. or s.c. for 4 days prior to chemotherapy, Adriamycin 2.5 mg/kg i.p. daily for 3 days plus Cytoxan 25 mg/kg single injection, 6 experiments, 77 animals): excellent protection and Yes*
- Protection from alopecia (VP-16-induced alopecia; 50 μg daily i.p. or s.c. for 4 days prior to chemotherapy, VP-16 1.5 mg/kg i.p. daily for 3 days, 2 experiments, 22 animals): excellent protection and Yes*
- Protection from VP-16-induced alopecia (VP-16-induced alopecia; 50 μg s.c. over head daily for four days, then VP-16 1.5 mg/kg i.p. daily for three days): protected
- Protection from alopecia (Cytoxan-induced alopecia): excellent protection and Yes*

Compound: Murine EGF: Receptor grade EGF from mouse submaxillary glands (Sigma) (NSYPGCPSSYDGYCLNGGVCMHIESLDSYTCNCVIGYSGDRCQTRDLRWWELR; Epidermal growth factor; UniProt P01132 977-1029, looked up)
- Alopecia after topical treatment (ARA-C-induced alopecia; 10 μg in DMSO daily × 7 days topically between shoulder blades over 1 cm^2, ARA-C 50 mg/kg × 7 days, 6 rats): all rats developed complete body alopecia except where the EGF was applied topically
- Number of rats with alopecia 0 (no detectable alopecia) (ARA-C-induced alopecia; [2]): 5
- Number of rats with alopecia 1+ (mild, less than 50% hair loss) (ARA-C-induced alopecia; [2]): 6
- Number of rats with alopecia 2+ (moderately severe, more than 50% hair loss) (ARA-C-induced alopecia; [2]): 0
- Number of rats with alopecia 3+ (total or virtually total, >90% hair loss) (ARA-C-induced alopecia; [2]): 0
- Number of rats with alopecia 0 (no detectable alopecia) (ARA-C-induced alopecia; [3]): 1
- Number of rats with alopecia 1+ (mild, less than 50% hair loss) (ARA-C-induced alopecia; [3]): 5
- Number of rats with alopecia 2+ (moderately severe, more than 50% hair loss) (ARA-C-induced alopecia; [3]): 0
- Number of rats with alopecia 3+ (total or virtually total, >90% hair loss) (ARA-C-induced alopecia; [3]): 0
- Number of rats with alopecia 0 (no detectable alopecia) (ARA-C-induced alopecia; Experiment II, 1 μg s.c. daily × 7 days with ARA-C 50 mg/kg i.p. × 7 days, 6 rats, day 12, listed as mouse EGF): one
- Number of rats with mild alopecia over head and neck [1, 4]: one
- Number of rats with minimal alopecia over head and neck [1, 4]: one
- Number of rats with no detectable alopecia over head and neck [1, 4]: two

Compound: aFGF: aFGF, a fibroblast growth factor, purchased from AMGEN Corp.
- Protection from ARA-C-induced alopecia (ARA-C-induced alopecia; 2 μg s.c. on back of head daily for seven days, ARA-C 50 mg/kg/day for seven days, day 12): protected locally at the site of injection

Compound: rHu-EGF: human recombinant EGF (Sigma)
- Number of rats with alopecia 0 (no detectable alopecia) (ARA-C-induced alopecia; [5]): one
- Number of rats with alopecia 1+ (mild, less than 50% hair loss) (ARA-C-induced alopecia; [5]): four
- Number of rats with alopecia 2+ (moderately severe, more than 50% hair loss) (ARA-C-induced alopecia; [5]): one
- Number of rats with alopecia 3+ (total or virtually total, >90% hair loss) (ARA-C-induced alopecia; [5]): none
- Number of rats with alopecia 0 (no detectable alopecia) (ARA-C-induced alopecia; [6]): 1
- Number of rats with alopecia 1+ (mild, less than 50% hair loss) (ARA-C-induced alopecia; [6]): 4
- Number of rats with alopecia 2+ (moderately severe, more than 50% hair loss) (ARA-C-induced alopecia; [6]): 1
- Number of rats with alopecia 3+ (total or virtually total, >90% hair loss) (ARA-C-induced alopecia; [6]): 0
